Experimental data as given in paper PMC11742723, “The clinical-stage drug BTZ-043 accumulates in murine tuberculosis lesions and efficiently acts against Mycobacterium tuberculosis” (Nature Communications, 2025).

Experiment: MALDI imaging and penetration analysis in centrally necrotizing granulomas

C[C@H]1COC2(CCN(c3nc(=O)c4cc(C(F)(F)F)cc([N+](=O)[O-])c4s3)CC2)O1 [BTZ-043]
Mean intensity (Left Granuloma, Distance -275 μm): 70.893
Mean intensity (Left Granuloma, Distance -285 μm): 72.505
Mean intensity (Left Granuloma, Distance -295 μm): 79.349
Mean intensity (Left Granuloma, Distance -305 μm): 78.856
Mean intensity (Left Granuloma, Distance -315 μm): 77.402
Mean intensity (Left Granuloma, Distance -325 μm): 81.899
Mean intensity (Left Granuloma, Distance -335 μm): 87.061
Mean intensity (Left Granuloma, Distance -345 μm): 86.34
Mean intensity (Left Granuloma, Distance -355 μm): 78.295
Mean intensity (Left Granuloma, Distance -365 μm): 77.954
Mean intensity (Left Granuloma, Distance -375 μm): 75.379
Mean intensity (Left Granuloma, Distance -385 μm): 74.434
Mean intensity (Left Granuloma, Distance -395 μm): 71.834
Mean intensity (Left Granuloma, Distance -405 μm): 68.248
Mean intensity (Left Granuloma, Distance -415 μm): 72.627
Mean intensity (Left Granuloma, Distance -425 μm): 59.053
Mean intensity (Left Granuloma, Distance -435 μm): 63.125
Mean intensity (Left Granuloma, Distance -445 μm): 62.385
Mean intensity (Right Granuloma, Distance 5 μm): 197.71
Mean intensity (Right Granuloma, Distance 15 μm): 215.58
Mean intensity (Right Granuloma, Distance -5 μm): 125.01
Mean intensity (Right Granuloma, Distance -15 μm): 127.96
Mean intensity (Right Granuloma, Distance -25 μm): 106.25
Mean intensity (Right Granuloma, Distance -35 μm): 89.663
Mean intensity (Right Granuloma, Distance -45 μm): 81.533
Mean intensity (Right Granuloma, Distance -55 μm): 68.214
Mean intensity (Right Granuloma, Distance -65 μm): 66.172
Mean intensity (Right Granuloma, Distance -75 μm): 61.043
Mean intensity (Right Granuloma, Distance -85 μm): 54.281
Mean intensity (Right Granuloma, Distance -95 μm): 56.521
Mean intensity (Right Granuloma, Distance -105 μm): 53.591
Mean intensity (Right Granuloma, Distance -115 μm): 52.38
Mean intensity (Right Granuloma, Distance -125 μm): 54.234
Mean intensity (Right Granuloma, Distance -135 μm): 48.899
Mean intensity (Right Granuloma, Distance -145 μm): 60.041
Mean intensity (Right Granuloma, Distance -155 μm): 59.51
Mean intensity (Right Granuloma, Distance -165 μm): 58.931
Mean intensity (Right Granuloma, Distance -175 μm): 63.443
Mean intensity (Right Granuloma, Distance -185 μm): 66.482
Mean intensity (Right Granuloma, Distance -195 μm): 69.634
Mean intensity (Right Granuloma, Distance -205 μm): 66.172
Mean intensity (Right Granuloma, Distance -215 μm): 74.546
Mean intensity (Right Granuloma, Distance -225 μm): 72.092
Mean intensity (Right Granuloma, Distance -235 μm): 66.755
Mean intensity (Right Granuloma, Distance -245 μm): 74.961
Mean intensity (Right Granuloma, Distance -255 μm): 64.422
Mean intensity (Right Granuloma, Distance -265 μm): 67.123
Mean intensity (Right Granuloma, Distance -275 μm): 62.093
Mean intensity (Right Granuloma, Distance -285 μm): 63.383
Mean intensity (Right Granuloma, Distance -295 μm): 60.578
Mean intensity (Right Granuloma, Distance -305 μm): 57.529
Mean intensity (Right Granuloma, Distance -315 μm): 54.535
Mean intensity (Right Granuloma, Distance -325 μm): 51.043
Mean intensity (Right Granuloma, Distance -335 μm): 51.438
Mean intensity (Right Granuloma, Distance -345 μm): 52.76
Mean intensity (Right Granuloma, Distance -355 μm): 52.538
Mean intensity (Right Granuloma, Distance -365 μm): 48.918
Mean intensity (Right Granuloma, Distance -375 μm): 51.113
Mean intensity (Right Granuloma, Distance -385 μm): 46.016
Mean intensity (Right Granuloma, Distance -395 μm): 55.943
Mean intensity (Right Granuloma, Distance -405 μm): 55.946
Mean intensity (Right Granuloma, Distance -415 μm): 56.244
Mean intensity (Right Granuloma, Distance -425 μm): 54.068
Mean intensity (Right Granuloma, Distance -435 μm): 59.943
Mean intensity (Right Granuloma, Distance -445 μm): 57.116
